Test results as given in ChEMBL document CHEMBL3885861, “Open TG-GATES”.

Organism: Rattus norvegicus
Assay: Open TG-GATES - Regimen: Single
Assay type: toxicity, organism-based, Sprague-Dawley
Parameters: regimen Single, gender Male, age 6 weeks
Settings: in vivo, po, 1 mg/kg, route gavage, dose level Low; for APTT / Bas / Eos / Fbg / Hb / Ht / Lym / MCH / MCHC / MCV / Mono / Neu / PT / Plat / RBC / Ret / WBC: tissue Blood; for KIDNEY_L / KIDNEY_R / KIDNEY_TOTAL: tissue Kidney; for LIVER: tissue Liver; for A/G / ALP / ALT / AST / BUN / CRE / Ca / Cl / DBIL / GLC / IP / K / LDH / Na / PL / RALB / TBIL / TC / TG / TP / gamma-GTP: tissue Plasma

With `CN1C(C(=O)Nc2ccccn2)=C(O)c2sc(Cl)cc2S1(=O)=O` [LORNOXICAM] the TERMINAL_BW (3 h) was 222.5 g, the APTT (3 h) was 19.4 s and the Bas (3 h) was 0.6%. For the same compound, the Eos (3 h) was 1%, the Fbg (3 h) was 219 mg/dL and the Hb (3 h) was 13.5 g/dL. It also gave a Ht (3 h) of 39.8%, a Lym (3 h) of 78.2% and an MCH (3 h) of 21.5 pg. For the same compound, the MCHC (3 h) was 33.9%, the MCV (3 h) was 63.4 fL and the Mono (3 h) was 2.6%. For the same compound, the Neu (3 h) was 17.4%, the PT (3 h) was 11.6 s and the Plat (3 h) was 128.4 x10_4/uL. It also gave an RBC (3 h) of 627.6 x10_4/ul, a Ret (3 h) of 7% and a WBC (3 h) of 99.9 x10_2/uL. It also gave a KIDNEY_L (3 h) of 1 g, a KIDNEY_R (3 h) of 1 g and a KIDNEY_TOTAL (3 h) of 2 g. It also gave an LIVER (3 h) of 10 g, an A/G (3 h) of 1.7 and an ALP (3 h) of 878.4 IU/L. It also gave an ALT (3 h) of 40.6 IU/L, an AST (3 h) of 71.8 IU/L and a BUN (3 h) of 11 mg/dL. For the same compound, the CRE (3 h) was 0.3 mg/dL, the Ca (3 h) was 10.7 mg/dL and the Cl (3 h) was 102.6 meq/L. The DBIL (3 h) was 0.072 mg/dL, the GLC (3 h) was 194.2 mg/dL and the IP (3 h) was 9.2 mg/dL. The K (3 h) was 3.7 meq/L, the LDH (3 h) was 172 IU/L and the Na (3 h) was 140.4 meq/L. For the same compound, the PL (3 h) was 149.8 mg/dL, the RALB (3 h) was 3.5 g/dL and the TBIL (3 h) was 0.1 mg/dL. The TC (3 h) was 81.8 mg/dL, the TG (3 h) was 64.2 mg/dL and the TP (3 h) was 5.6 g/dL. For the same compound, the gamma-GTP (3 h) was 1.2 IU/L, the TERMINAL_BW (6 h) was 223 g and the APTT (6 h) was 19.9 s. For the same compound, the Bas (6 h) was 0.8%, the Eos (6 h) was 1% and the Fbg (6 h) was 211 mg/dL. It also gave a Hb (6 h) of 13.1 g/dL, a Ht (6 h) of 38.9% and a Lym (6 h) of 74.8%. It also gave an MCH (6 h) of 20.8 pg, an MCHC (6 h) of 33.8% and an MCV (6 h) of 61.7 fL. For the same compound, the Mono (6 h) was 3.2%, the Neu (6 h) was 19.8% and the PT (6 h) was 12.2 s. It also gave a Plat (6 h) of 126.1 x10_4/uL, an RBC (6 h) of 629.8 x10_4/ul and a Ret (6 h) of 6.7%. The WBC (6 h) was 117.6 x10_2/uL, the KIDNEY_L (6 h) was 1 g and the KIDNEY_R (6 h) was 1 g. It also gave a KIDNEY_TOTAL (6 h) of 2 g, an LIVER (6 h) of 9.3 g and an A/G (6 h) of 1.7. The ALP (6 h) was 908.8 IU/L, the ALT (6 h) was 44.4 IU/L and the AST (6 h) was 79.6 IU/L. It also gave a BUN (6 h) of 11.2 mg/dL, a CRE (6 h) of 0.3 mg/dL and a Ca (6 h) of 10.6 mg/dL. The Cl (6 h) was 104 meq/L, the DBIL (6 h) was 0.074 mg/dL and the GLC (6 h) was 190.2 mg/dL. It also gave an IP (6 h) of 8.6 mg/dL, a K (6 h) of 4 meq/L and an LDH (6 h) of 184.8 IU/L. For the same compound, the Na (6 h) was 140.6 meq/L, the PL (6 h) was 134.8 mg/dL and the RALB (6 h) was 3.5 g/dL. For the same compound, the TBIL (6 h) was 0.1 mg/dL, the TC (6 h) was 72.2 mg/dL and the TG (6 h) was 61.8 mg/dL. It also gave a TP (6 h) of 5.5 g/dL, a gamma-GTP (6 h) of 1.2 IU/L and a TERMINAL_BW (9 h) of 220.2 g. It also gave an APTT (9 h) of 19.1 s, a Bas (9 h) of 0.6% and an Eos (9 h) of 0.8%. For the same compound, the Fbg (9 h) was 220.4 mg/dL, the Hb (9 h) was 13.5 g/dL and the Ht (9 h) was 40.3%. It also gave a Lym (9 h) of 75%, an MCH (9 h) of 21.2 pg and an MCHC (9 h) of 33.5%. The MCV (9 h) was 63.3 fL, the Mono (9 h) was 3.4% and the Neu (9 h) was 20.4%. The PT (9 h) was 12.2 s, the Plat (9 h) was 119.8 x10_4/uL and the RBC (9 h) was 636.4 x10_4/ul. The Ret (9 h) was 7.4%, the WBC (9 h) was 109.6 x10_2/uL and the KIDNEY_L (9 h) was 1 g. It also gave a KIDNEY_R (9 h) of 1 g, a KIDNEY_TOTAL (9 h) of 2 g and an LIVER (9 h) of 8.9 g. For the same compound, the A/G (9 h) was 1.6, the ALP (9 h) was 866.2 IU/L and the ALT (9 h) was 37.8 IU/L. For the same compound, the AST (9 h) was 68.6 IU/L, the BUN (9 h) was 10.6 mg/dL and the CRE (9 h) was 0.3 mg/dL. It also gave a Ca (9 h) of 10.5 mg/dL, a Cl (9 h) of 103 meq/L and a DBIL (9 h) of 0.072 mg/dL. For the same compound, the GLC (9 h) was 197.8 mg/dL, the IP (9 h) was 9.1 mg/dL and the K (9 h) was 4.1 meq/L. For the same compound, the LDH (9 h) was 158.6 IU/L, the Na (9 h) was 141 meq/L and the PL (9 h) was 132.8 mg/dL. The RALB (9 h) was 3.4 g/dL, the TBIL (9 h) was 0.1 mg/dL and the TC (9 h) was 73.2 mg/dL. For the same compound, the TG (9 h) was 57.8 mg/dL, the TP (9 h) was 5.5 g/dL and the gamma-GTP (9 h) was 1.2 IU/L. It also gave a TERMINAL_BW (24 h) of 238.6 g, an APTT (24 h) of 19.3 s and a Bas (24 h) of 0.4%. For the same compound, the Eos (24 h) was 0.8%, the Fbg (24 h) was 251 mg/dL and the Hb (24 h) was 13 g/dL. It also gave a Ht (24 h) of 38.9%, a Lym (24 h) of 69.4% and an MCH (24 h) of 21.3 pg. The MCHC (24 h) was 33.4%, the MCV (24 h) was 63.6 fL and the Mono (24 h) was 3.2%. For the same compound, the Neu (24 h) was 26%, the PT (24 h) was 11.8 s and the Plat (24 h) was 121.2 x10_4/uL. For the same compound, the RBC (24 h) was 612.8 x10_4/ul, the Ret (24 h) was 6.9% and the WBC (24 h) was 134.5 x10_2/uL. It also gave a KIDNEY_L (24 h) of 1 g, a KIDNEY_R (24 h) of 1 g and a KIDNEY_TOTAL (24 h) of 2 g. It also gave an LIVER (24 h) of 11.4 g, an A/G (24 h) of 1.5 and an ALP (24 h) of 822 IU/L. The ALT (24 h) was 39.6 IU/L, the AST (24 h) was 68.8 IU/L and the BUN (24 h) was 14.8 mg/dL. For the same compound, the CRE (24 h) was 0.4 mg/dL, the Ca (24 h) was 10.8 mg/dL and the Cl (24 h) was 104 meq/L. The DBIL (24 h) was 0.098 mg/dL, the GLC (24 h) was 203.6 mg/dL and the IP (24 h) was 7.6 mg/dL. It also gave a K (24 h) of 4.1 meq/L, an LDH (24 h) of 190.4 IU/L and a Na (24 h) of 141 meq/L. It also gave a PL (24 h) of 145.2 mg/dL, an RALB (24 h) of 3.2 g/dL and a TBIL (24 h) of 0.2 mg/dL. It also gave a TC (24 h) of 73.8 mg/dL, a TG (24 h) of 100.2 mg/dL and a TP (24 h) of 5.4 g/dL. For the same compound, the gamma-GTP (24 h) was 1.4 IU/L.
